Consider one compound from paper PMC9307329, “Enzymes Inhibition and Antioxidant Potential of Medicinal Plants Growing in Oman” (BioMed Research International, 2022).

For the assay, the target named is Jack bean urease (Canavalia ensiformis, UniProt P07374). The conditions noted are these: substrate urea; phosphate buffer pH […]; […]°C; […] min.
Jack bean urease, sequence (P07374 whole entry, looked up): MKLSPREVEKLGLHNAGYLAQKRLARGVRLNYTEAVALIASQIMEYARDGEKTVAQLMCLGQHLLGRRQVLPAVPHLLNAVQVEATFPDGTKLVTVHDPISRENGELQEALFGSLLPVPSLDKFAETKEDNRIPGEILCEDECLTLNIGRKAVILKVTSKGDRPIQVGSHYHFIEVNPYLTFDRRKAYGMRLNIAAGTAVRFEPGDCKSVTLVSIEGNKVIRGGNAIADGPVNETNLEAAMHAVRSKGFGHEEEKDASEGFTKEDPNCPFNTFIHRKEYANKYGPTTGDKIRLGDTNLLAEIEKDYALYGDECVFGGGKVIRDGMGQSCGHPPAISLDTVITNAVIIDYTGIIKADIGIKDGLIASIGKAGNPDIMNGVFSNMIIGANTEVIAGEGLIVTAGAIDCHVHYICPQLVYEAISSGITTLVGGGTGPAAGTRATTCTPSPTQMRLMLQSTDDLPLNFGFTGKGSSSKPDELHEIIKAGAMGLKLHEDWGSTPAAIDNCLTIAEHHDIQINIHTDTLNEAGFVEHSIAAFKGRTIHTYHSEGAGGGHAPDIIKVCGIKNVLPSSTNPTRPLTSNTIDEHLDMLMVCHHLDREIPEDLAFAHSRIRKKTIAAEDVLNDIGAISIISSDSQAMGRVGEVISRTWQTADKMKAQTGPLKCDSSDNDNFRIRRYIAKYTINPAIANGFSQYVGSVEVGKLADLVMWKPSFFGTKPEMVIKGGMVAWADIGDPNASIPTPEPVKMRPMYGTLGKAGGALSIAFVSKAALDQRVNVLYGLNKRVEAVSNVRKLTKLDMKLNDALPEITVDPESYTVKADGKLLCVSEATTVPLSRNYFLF

As for `NC(N)=S` [Thiourea], the “Urease IC50 ± SEM” value is 1.58 ± 0.95 µg/mL.
